Test results: PMC7851395 (British Journal of Cancer, 2020)

Legend:
[1] = test system: NSCLC cells (PC-9, A549 or H460); experiment: cells; type: cell-based, human; details: Supplementary Table 1, cell line (PC-9, A549 or H460) not assignable
Experimental: (§1) The cytotoxicity and viability of human NSCLC cells and normal cells were determined by MTT assay. MTT assay was performed as described previously.[22] MTT assay was used to determine the cell cytotoxicity and viability in human NSCLC cells. Cells (5 × 10^3 cells/well) were plated in 96-well plates and attached overnight. After the proper treatment, the MTT solution was added at 25 µL/well and incubated at 37 °C for 4 h. The formazan crystals were dissolved in 150 µL of DMSO, and the optical density (OD) was measured using a Microplate Reader at 490 nm. The cell viability was calculated by the following formula: viability = (average OD values of treatment wells/average OD values of vehicle control wells) × 100%. And half-maximal inhibitory concentration (IC50) values were determined by GraphPad Pro Prism 7.0.

H460 cells = experiment: MTT cytotoxicity assay, H460 cells; type: cell-based; details: Homo sapiens, NCI-H460
Experimental: as §1

H460 xenograft = type: in vivo, BALB/c nude mice; details: 2 mg/kg i.p. every other day, compared with vehicle
Experimental: All animal procedures were done accordingly with the Institutional laboratory animal research guidelines and were approved by Wenzhou Medical University Animal Policy and Welfare Committee. Female athymic BALB/c nude mice (5–6 weeks old) and immune-defective non-obese […] diabetic severe combined immunodeficiency (NOD-SCID) mice (6–8 weeks old) were purchased from the Vital River Experimental Animal Center (Beijing, China). All the mice were housed under 12 h light–dark cycles at 25 °C and free for water and diet. For the xenograft model, the H460 cells (5 × 10^6 cells were mixed with an equal volume of PBS and Matrigel in 100 μL) were implanted on the hind flank of nude mice. Once tumour volumes reached ~50 mm^3, 24 mice were divided into four experimental groups (six mice per group, no differences in mean body weights or tumour volumes between the groups) and intraperitoneal injection with 2 mg/kg SNS-032 (a recognised CDK9 inhibitor), bufalin and acetyl-bufalin every other day. Tumour volume was measured as V = (L × W × W)/2, in which L and W represent the length and width of tumour. Animals were killed by cervical dislocation once the tumour volume reached 1000 mm^3. The tumours, hearts, livers, kidneys and lungs were removed for use in the histology and western blot analysis.

[2] = Pharmacokinetic study in rat plasma (LC-MS/MS); type: in vivo, S.D. rats; details: 0.25 mg/kg i.v. and 2 mg/kg i.p.
Experimental: For the pharmacokinetic study, female S.D. rats (body weight 200 ± 10 g) have fasted overnight with free access to water before the experiment. Twelve rats were randomly divided into four groups. The time schedule included eight timepoints, and three S.D. rats were sampled at each time-point. Bufalin and acetyl-bufalin were administered intravenously and intraperitoneally to the rats at the dose of 0.25 mg/kg and 2 mg/kg, respectively. The animals had free access to water during the experiment. Blood samples were collected from the retro-orbital plexus of each rat at 0.083, 0.25, 0.5, 1, 2, 4, 6, 8, 12, 24 h after administration. Plasma was separated from the blood after centrifugation at 6000×g for 10 min and frozen at −20 °C until analysis. In total, 20 µL of standard samples in duplicate, quality control samples in duplicate and rat plasma samples were mixed with 60 µL of ethyl acetate containing IS (200 ng/mL of tolbutamide, 50 ng/mL of propranolol and 500 ng/mL of Dic) in EP tubes. After the mixture was vortexed for 1 min, then centrifuged for 10 min (13,000 rpm, 4 °C), transferred 50 µL supernatant to a 96-well plate with 150 µL purred water, shacked for 10 min and finally injected 5 µL into liquid chromatographic-tandem mass spectrometry (LC-MS/MS) system for analysis.

PC-9 cells = experiment: MTT cytotoxicity assay, PC-9 cells; type: cell-based; details: Homo sapiens
Experimental: as §1

NIH mice = experiment: Acute toxicity test; type: in vivo; details: 30 mg/kg single intraperitoneal injection, observed 14 days, n = 10
Experimental: In the acute toxicity test, 30 NIH mice (female, 8 weeks old) were randomly divided into three groups (n = 10), including vehicle group, bufalin group (30 mg/kg) and acetyl-bufalin group (30 mg/kg). The three groups received intraperitoneal injection only on the first day. All the mice were housed under 12 h light–dark cycles at 25 °C and free for water and diet. […] All the mice were sacrificed by cervical dislocation.

A549 cells = experiment: MTT cytotoxicity assay, A549 cells; type: cell-based; details: Homo sapiens, A549
Experimental: as §1

CDK9 = molecular target: T1, CDK9 (Homo sapiens, UniProt P50750); experiment: HuProt human proteome microarray binding; details: 10 μM on HuProt microarray, CDK9 spots
T1 construct: GST (N); purchased CDI Laboratories, Baltimore, MD Arrayit HuProt v2.0 19 K Human Proteome Microarrays
Experimental: Arrayit HuProt™ v2.0 19 K Human Proteome Microarrays (CDI Laboratories, Baltimore, MD) were blocked for 1 h with 3% BSA at room temperature. Biotinylated bufalin was diluted to 10 μM in blocking buffer and cultured on the proteome microarray at room temperature for 1 h. The arrays were washed with PBST (a mixture of PBS and Tween 20) and incubated with Cy3-Streptavidin at 1:1000 dilution (Sigma-Aldrich) for 1 h at room temperature. Finally, the microarray was spun dry and scanned with a GenePix 4200 A microarray scanner (Molecular Devices, San Jose, CA). Data were analysed by GenePix Pro 6.0 software. The signal-to-noise ratio (SNR) was defined as the ratio of median foreground value minus median background value. The cut-off value of SNR (>1.1) was set.

[3] = test system: P-CDK9, CDK9, P-STAT3 and S2 RNAPII; experiment: Western blot of CDK9/STAT3 pathway proteins; type: cell-based, human; details: H460 and PC-9 cells, 12 h; acetyl-bufalin 25-200 nM, SNS-032 200 nM
Experimental: Tissue proteins were extracted with tissue protein lysate buffer. Cells were grown to different densities and extracted with cell protein lysate buffer. The protein was mixed with loading buffer and boiled for 10 min at 100 °C, then loaded and separated by 10% or 12% sodium dodecyl sulfate-polyacrylamide gel (SDS-PAGE) and then transferred onto a PVDF membrane blocking with 5% skim milk. The blots were incubated overnight with specific primary antibodies at 4 °C. On the second day, after washing with TBST (a mixture of tris-buffered saline (TBS) and Tween 20) three times, the […] membranes were incubated with horseradish peroxidase-conjugated secondary antibodies for 1 h. The immunoreactive bands were visualised with enhanced chemiluminescence reagent.

T1 sequence (P50750 whole entry): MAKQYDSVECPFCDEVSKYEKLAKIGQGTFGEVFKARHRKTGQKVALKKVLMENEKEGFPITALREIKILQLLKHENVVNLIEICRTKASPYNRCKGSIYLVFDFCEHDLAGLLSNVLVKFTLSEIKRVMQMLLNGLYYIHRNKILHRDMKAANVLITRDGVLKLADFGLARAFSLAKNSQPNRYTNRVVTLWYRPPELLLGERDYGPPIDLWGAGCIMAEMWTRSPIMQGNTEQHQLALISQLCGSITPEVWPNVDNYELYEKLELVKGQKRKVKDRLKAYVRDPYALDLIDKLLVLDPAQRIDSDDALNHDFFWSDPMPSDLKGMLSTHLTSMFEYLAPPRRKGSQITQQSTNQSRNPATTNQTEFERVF

CC(=O)O[C@H]1[C@H]2O[C@]23[C@@H]2CC[C@]4(O)C[C@@H](O)CC[C@]4(C)[C@H]2CC[C@]3(C)[C@H]1c1ccc(=O)oc1 [Cinobufotalin]
IC50 ([1]; Homo sapiens): 0.587 µM

C[C@]12CC[C@H](O)C[C@H]1CC[C@@H]1[C@@H]2CC[C@]2(C)[C@@H](c3ccc(=O)oc3)CC[C@]12O [bufalin, reference compound]
IC50 (H460 cells): 0.0647 µM
tumour growth (weight and volume) (H460 xenograft): significantly inhibited tumour growth
absorption [2]: fast absorption
IC50 (PC-9 cells; PC-9, 48 h): 0.141 µM
mortality (mice died) (NIH mice): 10/10
IC50 (A549 cells): 0.0832 µM

C[C@]12CC[C@H](O)C[C@H]1CC[C@@H]1[C@@H]2CC[C@]2(C)[C@@H](c3ccc(=O)oc3)C[C@H]3O[C@]132 [Resibufogenin]
IC50 (H460 cells): 1.06 µM
IC50 (PC-9 cells; PC-9): 4.64 µM
IC50 (A549 cells): 1.13 µM

C[C@]12CC[C@H](OC(=O)CCCC[C@@H]3SC[C@@H]4NC(=O)N[C@@H]43)C[C@H]1CC[C@@H]1[C@@H]2CC[C@]2(C)[C@H](c3ccc(=O)oc3)CC[C@@]12O [bio-bufalin]
IC50 (PC-9 cells; PC-9, 48 h): 0.0771 µM
signal-to-noise ratio (SNR) (CDK9): 6.748

Resibufagin
IC50 [1]: 16 µM

CC(C)(C)c1cnc(CSc2cnc(NC(=O)C3CCNCC3)s2)o1 [SNS-032, reference compound]
P-CDK9, CDK9, P-STAT3 and S2 RNAPII expressions [3]: significantly dose-dependently decreased
tumour growth (weight and volume) (H460 xenograft): significantly inhibited tumour growth

CC(=O)O[C@H]1[C@H]2O[C@]23[C@@H]2CC[C@@H]4C[C@@H](O)CC[C@]4(C)[C@H]2CC[C@]3(C)[C@H]1c1ccc(=O)oc1 [Cinobufagin]
IC50 ([1]; Homo sapiens): 0.414 µM

CC(=O)O[C@H]1C[C@]2(O)[C@@H]3CC[C@@H]4C[C@@H](O)CC[C@]4(C)[C@H]3CC[C@]2(C)[C@H]1c1ccc(=O)oc1 [Bufotalin]
IC50 ([1]; Homo sapiens): 0.813 µM
